Source: patent EP4806435A1, “DIHYDROCHROMENE-DERIVATIVE-CONTAINING THERAPEUTIC AGENT FOR CANCER” (Sumitomo Pharma Co., Ltd., priority 2023, dated 2025)

System: patients with recurrent malignant glioma classified as WHO grade III or IV
Experiment: Phase 1 dose-escalation clinical trial: safety (TEAEs, DLTs, MTD);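 further: dosing continued until unacceptable toxicity, consent withdrawal, loss to follow-up or investigator/sponsor decision, with cohorts of 1-6 patients per dose level and MTD estimated by BLRM from cumulative DLT data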
[1] = 480 mg daily (240 mg BID) (N=6), cutoff April 21, 2024
[2] = 480 mg daily [240 mg BID] group, cutoff April 21, 2024
[3] = N=23 (n=2), cutoff April 21, 2023
[4] = N=39 (n=2), cutoff April 21, 2024
[5] = N=39 (n=3), cutoff April 21, 2024
[6] = Total (N=23), cutoff April 21, 2023
[7] = Total (N=39), cutoff April 21, 2024

Method: Administration to each subject was continued until unacceptable toxicity occurred, consent was withdrawn, the subject was lost to follow-up, or discontinuation was determined by the investigator and/or the sponsor.
The present study consists of two parts: a dose-escalation part (Part 1) and a dose-expansion part (Part 2).
Each dose level was evaluated in cohorts of 1-6 patients. In all cohorts, administration of the investigational drug to the second and subsequent patients was permitted after completion of all safety assessments on Day 8 of Cycle 1 in the first patient. […] At dose level 2 in the dose-escalation part, at least three patients were required to be evaluated before escalation to a higher dose level. After completion of each cohort, the probability of observing a DLT at each dose level in the present study was updated using the BLRM based on cumulative data from the preceding cohorts, and the MTD was estimated.

CC1(C)Oc2cc(Cl)ccc2[C@@H]2OCC3(CCN(CCn4ccnc4)CC3)C[C@H]21 [Compound 1, (4'aR,10'bR)-8'-chloro-1-[2-(1H-imidazol-1-yl)ethyl]-5',5'-dimethyl-4'a,10'b-dihydro-2'H,4'H,5'H-spiro[piperidine-4,3'-pyrano[3,2-c][1]benzopyran] diphosphate]
TEAE: alopecia [1]: 1 (16.7) n (%)
TEAE: constipation [1]: 1 (16.7) n (%)
TEAE: decreased appetite [1]: 1 (16.7) n (%)
TEAE: decreased lymphocyte count [1]: 1 (16.7) n (%)
TEAE: decreased neutrophil count [1]: 0 n (%)
TEAE: decreased platelet count [1]: 0 n (%)
TEAE: diarrhea [1]: 0 n (%)
TEAE: dry skin [1]: 3 (50.0) n (%)
TEAE: fall [1]: 3 (50.0) n (%)
TEAE: fatigue [1]: 2 (33.3) n (%)
TEAE: headache [1]: 0 n (%)
TEAE: hypertrigly-ceridaemia [1]: 0 n (%)
TEAE: hyponatremia [1]: 1 (16.7) n (%)
TEAE: increase in blood cholesterol [1]: 1 (16.7) n (%)
TEAE: increased alanine aminotransferase [1]: 5 (83.3) n (%)
TEAE: increased aspartate aminotransferase [1]: 2 (33.3) n (%)
TEAE: maculopapular rash [1]: 3 (50.0) n (%)
TEAE: nausea [1]: 2 (33.3) n (%)
TEAE: seizure [1]: 1 (16.7) n (%)
TEAE: vomiting [1]: 3 (50.0) n (%)
patients with DLTs (Grade 3 maculopapular rash; Grade 2 nausea and vomiting) (480 mg daily (240 mg BID), cutoff April 21, 2024): two
serious TEAE: confusional state [2]: one
serious TEAE: fatigue [2]: one
patients with serious TEAEs (N=23 (6 patients), cutoff April 21, 2023): 26.1%
patients with Grade ≥3 TEAEs (N=23 (13 patients), cutoff April 21, 2023): 56.5%
patients with TEAEs considered to be related to the study drug (N=23 (16 patients), cutoff April 21, 2023): 69.6%
Grade ≥3 TEAE: aphasia [3]: 8.7%
Grade ≥3 TEAE: decreased lymphocyte count [3]: 8.7%
Grade ≥3 TEAE: decreased white blood cell count [3]: 8.7%
Grade ≥3 TEAE: headache [3]: 8.7%
Grade ≥3 TEAE: decreased neutrophil count (N=23 (n=3), cutoff April 21, 2023): 13.0%
Grade ≥3 TEAE: seizure (N=23 (n=4), cutoff April 21, 2023): 17.4%
patients who died during the study due to TEAEs (assessed as not related) (N=23, 40 mg and 240 mg groups, cutoff April 21, 2023): two
Grade ≥3 TEAE considered related to Compound 1 (dry skin) (N=23, cutoff April 21, 2023): one
relatedness of serious TEAEs to Compound 1 (N=23, cutoff April 21, 2023): None of these serious TEAEs were considered to be related to Compound 1
patients with serious TEAEs (N=39 (9 patients), cutoff April 21, 2024): 23.1%
patients with Grade ≥3 TEAEs (N=39 (23 patients), cutoff April 21, 2024): 59.0%
patients with TEAEs considered to be related to the study drug (N=39 (30 patients), cutoff April 21, 2024): 76.9%
Grade ≥3 TEAE considered related to Compound 1: fatigue (N=39 (n=1), cutoff April 21, 2024): 2.6%
Grade ≥3 TEAE considered related to Compound 1: dry skin [4]: 5.1%
Grade ≥3 TEAE considered related to Compound 1: maculopapular rash [4]: 5.1%
Grade ≥3 TEAE: decreased white blood cell count [4]: 5.1%
Grade ≥3 TEAE: dry skin [4]: 5.1%
Grade ≥3 TEAE: increased alanine aminotransferase [4]: 5.1%
Grade ≥3 TEAE: maculopapular rash [4]: 5.1%
Grade ≥3 TEAE: aphasia [5]: 7.7%
Grade ≥3 TEAE: decreased lymphocyte count [5]: 7.7%
Grade ≥3 TEAE: decreased neutrophil count [5]: 7.7%
Grade ≥3 TEAE: headache [5]: 7.7%
Grade ≥3 TEAE: fatigue (N=39 (n=4), cutoff April 21, 2024): 10.3%
Grade ≥3 TEAE: seizure (N=39 (n=5), cutoff April 21, 2024): 12.8%
patients who died during the study due to TEAEs (N=39, 40 mg QD and 240 mg QD groups, cutoff April 21, 2024): Two
serious TEAEs considered to be related to Compound 1 (N=39, cutoff April 21, 2024): nine and None of these serious TEAEs were considered to be related to Compound 1
Number of patients with any TEAE [6]: 23 (100) n (%)
TEAE: constipation [6]: 7 (30.4) n (%)
TEAE: decreased appetite [6]: 3 (13.0) n (%)
TEAE: decreased lymphocyte count [6]: 5 (21.7) n (%)
TEAE: decreased neutrophil count [6]: 6 (26.1) n (%)
TEAE: decreased platelet count [6]: 4 (17.4) n (%)
TEAE: decreased white blood cell count [6]: 3 (13.0) n (%)
TEAE: dry skin [6]: 5 (21.7) n (%)
TEAE: fall [6]: 3 (13.0) n (%)
TEAE: headache [6]: 7 (30.4) n (%)
TEAE: hypertrigly-ceridaemia [6]: 4 (17.4) n (%)
TEAE: hyponatremia [6]: 3 (13.0) n (%)
TEAE: increased alanine aminotransferase [6]: 12 (52.2) n (%)
TEAE: increased aspartate aminotransferase [6]: 6 (26.1) n (%)
TEAE: nausea [6]: 11 (47.8) n (%)
TEAE: seizure [6]: 5 (21.7) n (%)
TEAE: vomiting [6]: 6 (26.1) n (%)
Number of Patients with Any TEAE [7]: 39 (100) n (%)
TEAE: Confusional state [7]: 4 (10.3) n (%)
TEAE: Gait disturbance [7]: 4 (10.3) n (%)
TEAE: Gastrointestinal disorder [7]: 4 (10.3) n (%)
TEAE: Hiccups [7]: 4 (10.3) n (%)
TEAE: Tremor [7]: 4 (10.3) n (%)
TEAE: alopecia [7]: 6 (15.4) n (%)
TEAE: constipation [7]: 11 (28.2) n (%)
TEAE: decreased appetite [7]: 6 (15.4) n (%)
TEAE: decreased lymphocyte count [7]: 6 (15.4) n (%)
TEAE: decreased neutrophil count [7]: 6 (15.4) n (%)
TEAE: decreased platelet count [7]: 5 (12.8) n (%)
TEAE: diarrhea [7]: 5 (12.8) n (%)
TEAE: dry skin [7]: 10 (25.6) n (%)
TEAE: fall [7]: 9 (23.1) n (%)
TEAE: fatigue [7]: 7 (17.9) n (%)
TEAE: headache [7]: 9 (23.1) n (%)
TEAE: hypertrigly-ceridaemia [7]: 5 (12.8) n (%)
TEAE: hyponatremia [7]: 5 (12.8) n (%)
TEAE: increase in blood cholesterol [7]: 4 (10.3) n (%)
TEAE: increased alanine aminotransferase [7]: 25 (64.1) n (%)
TEAE: increased aspartate aminotransferase [7]: 13 (33.3) n (%)
TEAE: maculopapular rash [7]: 4 (10.3) n (%)
TEAE: nausea [7]: 21 (53.8) n (%)
TEAE: seizure [7]: 7 (17.9) n (%)
TEAE: vomiting [7]: 14 (35.9) n (%)
study drug related Grade 3 AEs (dry skin, and rash) (as of September 2023, n=33): 2
study drug-related SAEs (as of September 2023, n=33): no study drug-related SAEs reported
dose-limiting toxicities (DLTs) (from 20 mg QD to 240 mg QD, cutoff April 21, 2024): No dose-limiting toxicities (DLTs) were observed
dose limiting toxicity (from 20 mg up to 240 mg, as of September 2023): No dose limiting toxicity reported
serious TEAE: seizure (one 20 mg QD, one 120 mg QD, two 180 mg QD, cutoff April 21, 2024): four
